Consider ten compounds from patent publication US9062066B2, “Anti-inflammatory compound having inhibitory activity against multiple tyrosine kinases and pharmaceutical composition containing same” (KOREA INSTITUTE OF SCIENCE AND TECHNOLOGY, priority 2010, dated 2015).

Structures are written as SMILES. Read-outs that look alike come from different tables or passages of the source.

The subject of experiment [1] is oxazolone-induced skin inflammation of Balb/C mouse ears. Briefly: mouse skin inflammatory model induced by oxazolone (ear thickness). It is filed as in vivo. To be noted: 20 ul of 0.1% compound topical on ear, 36 hours after oxazolone. Here is the method:
The compounds of the present invention were evaluated for their effective anti-inflammatory activity using a skin inflammatory animal model of 8 weeks old Balb/C mouse ears induced by oxazolone. […] After 4 days, the thickness of ear was measured using a caliper for the thickness value of ear before the induction of inflammation. […] After 36 hours, the thickness of ear was measured for the increased thickness induced by inflammation. […] The average value was obtained in each group (n=4).

Experiment [2] addresses Lyn tyrosine kinase (Homo sapiens (Human), UniProt P07948). Description: in vitro Lyn tyrosine kinase inhibition. It is filed as biochemical. As to conditions: read-out: % inhibition against Lyn.
Experiment [3] relates to TNF-α synthesis in J744A.1 macrophages. Briefly: inhibition of TNF-α synthesis in LPS-activated macrophages (ELISA). The class given is cell-based. As to conditions: Macrophage, read-out: Inhibition (%) of TNF-α synthesis.
Experiment [4] has as its system NO synthesis in J744A.1 macrophage. Description: inhibition of nitric oxide (NO) synthesis in LPS-activated macrophages (Griess reagent). The class given is cell-based. As to conditions: read-out: Inhibition (%) of NO synthesis.
In experiment [5] the target is DDR2 tyrosine kinase (Homo sapiens (Human), UniProt Q16832). Briefly: in vitro DDR2 tyrosine kinase inhibition (GST-fused kinase domain). The class given is biochemical. To be noted: read-out: % inhibition against DDR2.
Experiment [6] has as its system mouse skin fibroblast. Briefly: inhibition of migration of activated fibroblast (scratch wound). It is filed as cell-based. To be noted: read-out: Inhibition (%) of migration of activated fibroblast. Here is the method: The straight line of regular width was made using a micro pipette tip for a scratch wound on the mono-layer culture, and then the culture was exchanged to DMEM medium and incubated with 10 ng/ml of TGF-β1 in cell culture incubator of 37° C. for 24 hours. The cultured cells were fixed using formalin and stained with crystal violet. Photo-pictures were taken at 100× magnification in five location selected randomly in the scratched wound site of each stained culture dish and then the number of the cells moved into the scratched wound area was counted and averaged.

The target in experiment [7] is c-Src tyrosine kinase (Homo sapiens (Human), UniProt P12931). Briefly: in vitro c-Src tyrosine kinase inhibition (32P-ATP, poly(D4Y)n substrate). The class given is biochemical. To be noted: read-out: % inhibition against c-Src.
For experiment [8], the target named is DDR1 tyrosine kinase (Homo sapiens (Human), UniProt Q08345). Description: in vitro DDR1 tyrosine kinase inhibition (GST-fused kinase domain). It is filed as biochemical. To be noted: read-out: % inhibition against DDR1.
Experiment [9] has as its target Fgr tyrosine kinase (Homo sapiens (Human), UniProt P09769). Description: in vitro Fgr tyrosine kinase inhibition. The class given is biochemical. As to conditions: read-out: % inhibition against Fgr.
For experiment [10], the target named is Hck tyrosine kinase (Homo sapiens (Human), UniProt P08631). Briefly: in vitro Hck tyrosine kinase inhibition. The class given is biochemical. To be noted: read-out: % inhibition against Hck.
The subject of experiment [11] is α-smooth muscle actin protein expression in skin fibroblast cells. Description: inhibition of α-smooth muscle actin expression in fibroblast activated by type I collagen and TGF-β1 (western blotting). It is filed as cell-based, Balb/C mouse. To be noted: Mus musculus, read-out: Inhibition (%) of α-smooth muscle actin increase. The source says:
When fibroblast, […] alpha smooth muscle cells are converted to myofibroblast by activation, one of characteristic features is that α-smooth muscle actin protein expression is increased. Also myoblast cells with the increased α-smooth muscle actin expression have a character of an increased migration. These phenomena appear together with the activation of inflammatory cells and the activated myoblast-type cells are known to contribute directly to the pathology of inflammatory diseases. […] In this experiment, the expression level of alpha smooth muscle actin can be quantificated by measuring the density of α-smooth muscle actin protein band with densitometer after developing the X-ray film of chemiluminescence signal in western blotting experiment.

Where [12] appears, read: 10 μM compound, 100 ng/ml LPS, 6 hours.
Setting [13] is: 0.5 uM compound, 10 ng/ml TGF-β1, 24 hours.
The mark [14] stands for this setting: 0.5 uM compound, 10 ng/ml TGF-β1, 48 hours, type I collagen.

Chain of DDR2 tyrosine kinase (Q16832 563-849): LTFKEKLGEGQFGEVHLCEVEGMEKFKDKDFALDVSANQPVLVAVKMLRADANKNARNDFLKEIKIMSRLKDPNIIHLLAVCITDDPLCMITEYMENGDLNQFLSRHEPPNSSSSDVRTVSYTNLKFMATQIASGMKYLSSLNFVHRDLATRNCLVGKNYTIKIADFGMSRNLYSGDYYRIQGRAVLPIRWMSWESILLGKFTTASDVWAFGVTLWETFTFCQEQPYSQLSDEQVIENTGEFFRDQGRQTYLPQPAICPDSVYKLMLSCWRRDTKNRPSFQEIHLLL
Chain of Fgr tyrosine kinase (P09769 whole entry): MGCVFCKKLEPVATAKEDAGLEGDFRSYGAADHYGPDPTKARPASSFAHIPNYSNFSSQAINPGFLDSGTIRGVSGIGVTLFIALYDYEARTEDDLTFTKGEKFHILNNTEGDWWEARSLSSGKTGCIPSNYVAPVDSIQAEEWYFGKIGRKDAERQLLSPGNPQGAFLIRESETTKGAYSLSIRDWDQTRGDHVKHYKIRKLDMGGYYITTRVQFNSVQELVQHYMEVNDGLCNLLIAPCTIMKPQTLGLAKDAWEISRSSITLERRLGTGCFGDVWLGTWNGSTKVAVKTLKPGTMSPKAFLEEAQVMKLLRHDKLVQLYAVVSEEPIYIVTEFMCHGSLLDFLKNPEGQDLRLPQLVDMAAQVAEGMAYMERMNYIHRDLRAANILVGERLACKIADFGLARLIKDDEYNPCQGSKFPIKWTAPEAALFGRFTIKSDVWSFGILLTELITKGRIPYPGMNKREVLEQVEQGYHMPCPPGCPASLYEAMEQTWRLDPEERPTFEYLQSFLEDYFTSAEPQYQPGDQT
Chain of c-Src tyrosine kinase (P12931 whole entry, looked up, the tested form may be a part): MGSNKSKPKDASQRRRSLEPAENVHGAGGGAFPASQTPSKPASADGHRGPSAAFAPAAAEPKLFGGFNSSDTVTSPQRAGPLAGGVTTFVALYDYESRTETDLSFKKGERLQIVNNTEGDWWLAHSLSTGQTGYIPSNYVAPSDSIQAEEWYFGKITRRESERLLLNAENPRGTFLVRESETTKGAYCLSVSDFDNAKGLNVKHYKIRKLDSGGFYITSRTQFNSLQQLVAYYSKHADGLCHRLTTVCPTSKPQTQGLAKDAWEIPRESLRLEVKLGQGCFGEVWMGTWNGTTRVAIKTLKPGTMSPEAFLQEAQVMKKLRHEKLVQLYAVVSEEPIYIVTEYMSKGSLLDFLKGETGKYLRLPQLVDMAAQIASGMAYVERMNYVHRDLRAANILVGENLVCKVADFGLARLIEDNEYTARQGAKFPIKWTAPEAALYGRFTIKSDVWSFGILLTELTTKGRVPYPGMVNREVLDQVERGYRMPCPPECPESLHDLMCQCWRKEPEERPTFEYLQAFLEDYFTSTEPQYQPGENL
Chain of Lyn tyrosine kinase (P07948 whole entry): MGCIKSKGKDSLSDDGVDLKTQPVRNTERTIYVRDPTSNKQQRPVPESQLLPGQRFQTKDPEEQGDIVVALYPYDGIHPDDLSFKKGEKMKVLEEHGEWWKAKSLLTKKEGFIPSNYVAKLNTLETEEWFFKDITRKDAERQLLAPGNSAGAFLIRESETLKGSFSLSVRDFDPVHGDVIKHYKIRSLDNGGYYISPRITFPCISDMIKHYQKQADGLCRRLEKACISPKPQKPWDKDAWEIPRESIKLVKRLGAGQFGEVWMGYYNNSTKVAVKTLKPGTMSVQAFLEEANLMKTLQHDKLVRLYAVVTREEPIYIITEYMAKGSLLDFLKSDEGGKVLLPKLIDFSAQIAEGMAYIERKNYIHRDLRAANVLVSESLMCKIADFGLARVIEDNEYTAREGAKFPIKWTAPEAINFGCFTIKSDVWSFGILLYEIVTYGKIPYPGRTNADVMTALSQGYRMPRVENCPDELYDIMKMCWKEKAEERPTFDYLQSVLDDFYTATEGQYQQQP
Chain of DDR1 tyrosine kinase (Q08345 610-905): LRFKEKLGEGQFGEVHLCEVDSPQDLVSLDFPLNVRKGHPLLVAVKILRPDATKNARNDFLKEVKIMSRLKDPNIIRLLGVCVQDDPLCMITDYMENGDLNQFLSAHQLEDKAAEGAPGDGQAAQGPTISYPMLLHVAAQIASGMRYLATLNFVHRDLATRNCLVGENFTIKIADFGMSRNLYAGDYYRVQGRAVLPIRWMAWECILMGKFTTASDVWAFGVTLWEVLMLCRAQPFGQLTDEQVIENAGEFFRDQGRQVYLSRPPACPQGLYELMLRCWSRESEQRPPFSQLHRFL
Chain of Hck tyrosine kinase (P08631 whole entry): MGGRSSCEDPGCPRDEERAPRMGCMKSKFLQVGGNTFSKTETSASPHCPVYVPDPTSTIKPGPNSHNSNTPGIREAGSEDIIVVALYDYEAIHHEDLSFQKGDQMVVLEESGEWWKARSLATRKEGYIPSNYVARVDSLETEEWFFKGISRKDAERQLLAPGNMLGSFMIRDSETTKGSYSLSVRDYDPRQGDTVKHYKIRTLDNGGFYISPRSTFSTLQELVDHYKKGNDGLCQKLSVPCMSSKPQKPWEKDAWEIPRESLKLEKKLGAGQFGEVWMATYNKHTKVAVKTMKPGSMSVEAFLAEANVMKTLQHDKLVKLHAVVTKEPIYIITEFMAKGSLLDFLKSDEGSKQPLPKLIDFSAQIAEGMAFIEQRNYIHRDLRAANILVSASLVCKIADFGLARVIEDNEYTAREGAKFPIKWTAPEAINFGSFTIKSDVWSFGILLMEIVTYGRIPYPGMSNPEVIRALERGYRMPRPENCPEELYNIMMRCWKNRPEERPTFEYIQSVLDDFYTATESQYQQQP

With `Cc1cc2cc(Nc3ccnc4cc(C(=O)N5CC[C@@H](O)C5)sc34)ccc2n1C(=O)NC1CC1` [Control compound 1, 5-[2-(3R-hydroxy-pyrrolidine-1-carbonyl)-thieno[3,2-b]pyridine-7-ylamino]-2-methyl-indole-1-carboxyacid cycloprophylamide, reference compound], the “Inhibition (%) of increase of ear thickness” value in experiment [1] is 3%. Moreover, the inhibition at 1 µM in experiment [2], in [5], in [7], in [8], in experiment [9] and in experiment [10] was less than 20% in each case. Moreover, the inhibition at 10 µM was found to be 16% in [3] (6 h) and 32% in experiment [4] (24 h). The inhibition at 0.5 µM is 17% in experiment [6] (24 h) and 16% in experiment [11] (48 h).

`COC[C@@H]1CCCN1C(=O)c1cc2nccc(Nc3ccc4c(c3)cc(C)n4C(=O)NC3CC3)c2s1` [Control compound 2, 5-(2-[(S)-2-(methoxymethyl)pyrrolidine-1-carbonyl]thieno[3,2-b]pyridine-7-ylamino)-2-methylindole-1-carboxyacid cycloprophylamide, reference compound]: the inhibition at 1 µM in [2] (1 uM compound), in experiment [5] (1 uM compound), in [7] (1 uM compound), in [8] (1 uM compound), in experiment [9] (1 uM compound) and in [10] (1 uM compound) was less than 20% in each case. Besides, the inhibition at 10 µM in experiment [3] (setting [12]) worked out at 39%; in [4] (10 μM compound, LPS, 24 hours) it was 45%. Further, the inhibition at 0.5 µM came to 14% in experiment [6] (setting [13]) and 22% in experiment [11] (setting [14]).

Take `CO[C@@H]1C[C@@H](CO)N(C(=O)c2cc3nccc(Nc4ccc5c(c4)cc(C)n5C(=O)NC4CC4)c3s2)C1` [Control compound 3, reference compound]: the “Inhibition (%) of increase of ear thickness” value in experiment [1] turned out to be 22%. In addition, the inhibition at 1 µM in [2] (1 uM compound), in experiment [5] (1 uM compound), in experiment [7] (1 uM compound), in experiment [8] (1 uM compound), in [9] (1 uM compound) and in [10] (1 uM compound) was less than 20% in each case. Further, the inhibition at 10 µM stood at 19% in experiment [3] (setting [12]) and 21% in experiment [4] (10 μM compound, LPS, 24 hours). The inhibition at 0.5 µM was 11% in [6] (setting [13]) and 8% in experiment [11] (setting [14]).

In the case of `Oc1cccc(Nc2ncnc3cc(-c4ccc(CN5CCOCC5)cc4)sc23)c1` [LCB 03-0032, 3-(6-(4-(morpholinomethyl)phenyl)thieno[3,2-d]pyrimidin-4-ylamino)phenol], the “Inhibition (%) of increase of ear thickness” value in experiment [1] is on record as 27%. For the same compound, the inhibition at 1 µM in experiment [2] (1 uM compound), in experiment [5] (1 uM compound), in experiment [7] (1 uM compound), in experiment [8] (1 uM compound), in experiment [9] (1 uM compound) and in experiment [10] (1 uM compound) was greater than 80% each time. Besides, the inhibition at 10 µM in experiment [3] (setting [12]) was determined as 77%; in experiment [4] (10 μM compound, LPS, 24 hours) it was 92%. Also, the inhibition at 0.5 µM in experiment [6] (setting [13]) worked out at 35%; in [11] (setting [14]) it was 56%.

Take `Oc1cccc(Nc2ncnc3cc(-c4ccc(CN5CCNCC5)cc4)sc23)c1` [LCB 03-0033, 3-(6-(4-(piperazine-1-ylmethyl)phenyl)thieno[3,2-d]pyrimidin-4-ylamino)phenol]: the “Inhibition (%) of increase of ear thickness” value in experiment [1] is given as 22%. Further, the inhibition at 1 µM was greater than 60% in [2] (1 uM compound); greater than 80% in experiment [5] (1 uM compound); greater than 60% in [7] (1 uM compound); greater than 80% in experiment [8] (1 uM compound); greater than 60% in experiment [9] (1 uM compound); greater than 60% in experiment [10] (1 uM compound). Moreover, the inhibition at 10 µM was determined as 59% in experiment [3] (setting [12]) and 77% in experiment [4] (10 μM compound, LPS, 24 hours). Besides, the inhibition at 0.5 µM worked out at 30% in experiment [6] (setting [13]) and 60% in experiment [11] (setting [14]).

As to `Cl.Oc1cccc(Nc2ncnc3cc(-c4ccc(CN5CCCC5)cc4)sc23)c1` [LCB 03-0034, 3-(6-(4-(pyrrolidin-1-ylmethyl)phenyl)thieno[3,2-d]pyrimidin-4-ylamino)phenol], the “Inhibition (%) of increase of ear thickness” value in experiment [1] came to 29%. Moreover, the inhibition at 1 µM was greater than 80% in experiment [2] (1 uM compound); greater than 80% in experiment [5] (1 uM compound); greater than 80% in experiment [7] (1 uM compound); greater than 80% in [8] (1 uM compound); greater than 80% in experiment [9] (1 uM compound); greater than 70% in experiment [10] (1 uM compound). Moreover, the inhibition at 10 µM in experiment [3] (setting [12]) turned out to be 75%; in [4] (10 μM compound, LPS, 24 hours), 90%. Also, the inhibition at 0.5 µM in experiment [6] (setting [13]) came to 32%; in [11] (setting [14]), 67%.

On to `Oc1cccc(Nc2ncnc3cc(-c4ccc(CN5CCCCC5)cc4)sc23)c1` [LCB 03-0035, 3-(6-(4-(piperidin-1-ylmethyl)phenyl)thieno[3,2-d]pyrimidin-4-ylamino)phenol], for which, in experiment [1], the “Inhibition (%) of increase of ear thickness” value was 31%. Also, the inhibition at 1 µM in experiment [2] (1 uM compound), in [5] (1 uM compound), in experiment [7] (1 uM compound), in [8] (1 uM compound), in [9] (1 uM compound) and in experiment [10] (1 uM compound) was greater than 80% each time. For the same compound, the inhibition at 10 µM in experiment [3] (setting [12]) is 65%; in experiment [4] (10 μM compound, LPS, 24 hours), 91%. For the same compound, the inhibition at 0.5 µM amounted to 31% in experiment [6] (setting [13]) and 55% in experiment [11] (setting [14]).

Turning to `CN1CCN(Cc2ccc(-c3cc4ncnc(Nc5cccc(O)c5)c4s3)cc2)CC1` [LCB 03-0036, 3-(6-(4-((4-methylpiperazin-1-yl)methyl)phenyl)thieno[3,2-d]pyrimidin-4-ylamino)phenol], the “Inhibition (%) of increase of ear thickness” value in experiment [1] is 28%. Moreover, the inhibition at 1 µM in experiment [2] (1 uM compound), in [5] (1 uM compound), in experiment [7] (1 uM compound), in experiment [8] (1 uM compound), in experiment [9] (1 uM compound) and in experiment [10] (1 uM compound) was greater than 80% each time. Moreover, the inhibition at 10 µM in [3] (setting [12]) amounted to 61%; in [4] (10 μM compound, LPS, 24 hours), 81%. In addition, the inhibition at 0.5 µM in experiment [6] (setting [13]) came to 39%; in [11] (setting [14]), 63%.

As for `Cl.Oc1cccc(Nc2ncnc3cc(-c4ccc(CN5CCC(O)C5)cc4)sc23)c1` (centres unmarked) [LCB 03-0072, 1-(4-(4-(3-hydroxyphenylamino)thieno[3,2-d]pyrimidin-6-yl)benzyl)pyrrolidin-3-ol], the “Inhibition (%) of increase of ear thickness” value in experiment [1] is on record as 48%. Moreover, the inhibition at 10 µM turned out to be 59% in experiment [3] (setting [12]) and 76% in experiment [4] (10 μM compound, LPS, 24 hours). For the same compound, the inhibition at 1 µM in [5] (1 uM compound) and in experiment [8] (1 uM compound) was greater than 80% throughout. Besides, the values for the inhibition at 0.5 µM in experiment [6] (setting [13]) and in [11] (setting [14]) were 27% and 39%, respectively.

Take `CCNCc1ccc(-c2cc3ncnc(Nc4cccc(O)c4)c3s2)s1` [LCB 03-0095, 3-(6-(5-((ethylamino)methyl)thiophene-2-yl)thieno[3,2-d]pyrimidin-4-ylamino)phenol]: in experiment [1], the “Inhibition (%) of increase of ear thickness” value came out at 43%. For the same compound, the inhibition at 1 µM in experiment [2] (1 uM compound) is greater than 60%; in experiment [5] (1 uM compound), greater than 80%; in experiment [7] (1 uM compound), greater than 60%; in experiment [8] (1 uM compound) it was greater than 80%; in experiment [9] (1 uM compound), greater than 60%; in experiment [10] (1 uM compound), greater than 50%. In addition, the inhibition at 10 µM in experiment [4] (24 h) came out at 59%. Further, the figures for the inhibition at 0.5 µM in experiment [6] (setting [13]) and in [11] (setting [14]) were 23% and 37%, respectively.
